Measurements as given in patent publication US20150105252A1, “SUBSTITUTED PYRAZOLES AS HERBICIDES” (E I DU PONT DE NEMOURS AND COMPANY, priority 2013, published 2015).

Columns and labels:
[1] = system: corn; experiment: Test C preemergence; format: in vivo, Zea mays
Excerpt: (§1) Seeds of plant species selected from blackgrass (Alopecurus myosuroides), ryegrass, Italian (Italian ryegrass, Lolium multiflorum), wheat (winter wheat, Triticum aestivum), galium (catchweed bedstraw, Galium aparine), corn (Zea mays), crabgrass, large (large crabgrass, Digitaria sanguinalis), foxtail, giant (giant foxtail, Setaria faberii), johnsongrass (Sorghum halepense), lambsquarters (Chenopodium album), morningglory (Ipomoea coccinea), nutsedge, yellow (yellow nutsedge, Cyperus esculentus), pigweed (redroot pigweed, Amaranthus retroflexus), ragweed (common ragweed, Ambrosia elation), soybean (Glycine max), barnyardgrass (Echinochloa crus-galli), oilseed rape (Brassica napus), waterhemp (common waterhemp, Amaranthus rudis), oat, wild (wild oat, Avena fatua), kochia (Kochia scoparia), Surinam grass (Brachiaria decumbens), foxtail, green (green foxtail, Setaria viridis), goosegrass (Eleusine indica), bromegrass, downy (downy bromegrass, Bromus tectorum), nightshade (eastern black nightshade, Solanum ptycanthum), cocklebur (common cocklebur, Xanthium strumarium), cupgrass, woolly (woolly cupgrass, Eriochloa villosa), bermudagrass (Cynodon dactylon), sunflower, (common oilseed sunflower, Helianthus annuus), Russian thistle (Salsola kali), and velvetleaf (Abutilon theophrasti) were planted into a blend of loam soil and sand and treated preemergence with test chemicals formulated in a non-phytotoxic solvent mixture which included a surfactant.
(§2) At the same time, plants selected from these crop and weed species and also chickweed (common chickweed, Stellaria media), canarygrass (littleseed canarygrass, Phalaris minor), and deadnettle (henbit deadnettle, Lamium amplexicaule), were planted in pots containing Redi-Earth® planting medium (Scotts Company, 14111 Scottslawn Road, Marysville, Ohio 43041) comprising spaghnum peat moss, vermiculite, wetting agent and starter nutrients and treated with postemergence applications of test chemicals formulated in the same manner. Plants ranged in height from 2 to 18 cm (1- to 4-leaf stage) for postemergence treatments. Treated plants and controls were maintained in a greenhouse for 13 to 15 days, after which time all species were compared to controls and visually evaluated. Plant response ratings, summarized in Table C, are based on a scale of 0 to 100 where 0 is no effect and 100 is complete control. A dash (-) response means no test result.

[2] = system: foxtail, giant; experiment: Test A preemergence; format: in vivo, Setaria faberii; conditions: preemergence; for Foxtail, Giant plant response rating (0 to 100 scale): visual injury approx. 10 days after treatment
How it was run: (§3)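 Growth medium: loam soil blended with sand. Preemergence treatment used a directed soil spray right after planting; postemergence treatment targeted seedlings at one to two leaves (2–10 cm height). Response was judged by eye relative to untreated plants about 10 days later on a 0–100 control scale.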

[3] = system: barnyardgrass; experiment: Test C preemergence; format: in vivo, Echinochloa crus-galli
Excerpt: as §1, §2

[4] = system: pigweed; experiment: Test A preemergence; format: in vivo, Amaranthus retroflexus; conditions: preemergence; for Pigweed plant response rating (0 to 100 scale): visual injury approx. 10 days after treatment
How it was run: as §3

[5] = system: ducksalad; experiment: Test B flood; format: in vivo, Heteranthera limosa; conditions: 250 g ai/ha, visual rating on 0 to 100 scale (0 no effect, 100 complete control), 13 to 15 days
How it was run: (§4)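 Flooded-pot test: compound dosed into 3 cm of standing water above soil when plants had two leaves. Visual control ratings (0–100) versus untreated plants after 13–15 d.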

[6] = system: velvetleaf; experiment: Test A preemergence; format: in vivo, Abutilon theophrasti; conditions: preemergence; for Velvetleaf plant response rating (0 to 100 scale): visual injury approx. 10 days after treatment
How it was run: as §3

[7] = system: barnyardgrass; experiment: Test A preemergence; format: in vivo, Echinochloa crus-galli; conditions: preemergence; for Barnyardgrass plant response rating (0 to 100 scale, 0 is no effect, 100 is complete control): visual injury approx. 10 days after treatment
How it was run: as §3

[8] = system: sedge, umbrella; experiment: Test B flood; format: in vivo, Cyperus difformis; conditions: 250 g ai/ha, visual rating on 0 to 100 scale (0 no effect, 100 complete control), 13 to 15 days
How it was run: as §4

[9] = system: galium; experiment: Test C preemergence; format: in vivo, Galium aparine
Excerpt: as §1, §2

[10] = system: morningglory; experiment: Test C preemergence; format: in vivo, Ipomoea coccinea
Excerpt: as §1, §2

[11] = system: wheat; experiment: Test A postemergence; format: in vivo, Triticum aestivum
How it was run: as §3

[12] = system: corn; experiment: Test A preemergence; format: in vivo, Zea mays; conditions: preemergence; for Corn plant response rating (0 to 100 scale): visual injury approx. 10 days after treatment
How it was run: as §3

[13] = preemergence, 31 g ai/ha, visual rating, scale 0 to 100 (0 no effect, 100 complete control), 13 to 15 days
[14] = preemergence, 62 g ai/ha, scale 0 to 100 (0 no effect, 100 complete control), 13 to 15 days
[15] = preemergence, 125 g ai/ha, 13 to 15 days, scale 0 to 100, 0 = no effect, 100 = complete control
[16] = preemergence, 250 g ai/ha, scale 0 to 100, 0 is no effect, 100 is complete control
[17] = 500 g ai/ha, visual injury after approx. 10 days, 0 to 100 scale (0 no effect, 100 complete control)
[18] = Postemergence, 500 g ai/ha, 0 to 100 scale (0 no effect, 100 complete control)
[19] = 125 g ai/ha, visual injury, 0 to 100 scale, approx. 10 days
[20] = postemergence, 125 g ai/ha, about 10 days, visual rating on 0 to 100 scale (0 no effect, 100 complete control)
[21] = Preemergence, 4 g ai/ha, scale 0 to 100
[22] = Preemergence, 8 g ai/ha, scale 0 to 100
[23] = Preemergence, 16 g ai/ha, scale 0 to 100

## CCCc1cc(C(=O)NOC(C)C)nn1Cc1cc(C(F)(F)F)nn1C [Compound 203]
[1]; [13]
  Corn plant response rating: 5
[1]; [14]
  Corn plant response rating: 50
[1]; [15]
  Plant response rating, Corn: 75
[1]; [16]
  Corn plant response rating: 98
[2]; 125 g ai/ha
  Foxtail, Giant plant response rating (0 to 100 scale): 80
[2]; [17]
  Foxtail, Giant plant response rating: 100
[3]; [13]
  Barnyardgrass plant response rating: 35
[3]; [14]
  Barnyardgrass plant response rating: 98
[3]; [15]
  Plant response rating, Barnyardgrass: 100
[3]; [16]
  Barnyardgrass plant response rating: 100
[4]; 125 g ai/ha
  Pigweed plant response rating (0 to 100 scale): 100
[5]
  Plant response rating, Ducksalad: 95
[6]; 125 g ai/ha
  Velvetleaf plant response rating (0 to 100 scale): 30
[7]; 125 g ai/ha
  Barnyardgrass plant response rating (0 to 100 scale, 0 is no effect, 100 is complete control): 80
[7]; [17]
  Barnyardgrass plant response rating: 100
[8]
  Plant response rating, Sedge, Umbrella: 95
[9]; [13]
  Galium plant response rating: 100
[9]; [14]
  Galium plant response rating: 100
[9]; [15]
  Plant response rating, Galium: 100
[9]; [16]
  Galium plant response rating: 100
[10]; [13]
  Morningglory plant response rating: 30
[10]; [14]
  Morningglory plant response rating: 95
[10]; [15]
  Plant response rating, Morningglory: 85
[10]; [16]
  Morningglory plant response rating: 100
[11]; Postemergence, 125 g ai/ha, 0 to 100 scale, 0 no effect, 100 complete control
  Wheat plant response rating: 70
[11]; [18]
  Wheat plant response rating: 80
[12]; 125 g ai/ha
  Corn plant response rating (0 to 100 scale): 20
[12]; [17]
  Corn plant response rating: 80

## O=C(NCC(F)(F)F)c1cc(CCF)n(Cc2ccnc(C(F)(F)F)c2)n1 [Compound 175]
[1]; [13]
  Corn plant response rating: 20
[1]; [14]
  Corn plant response rating: 30
[1]; [15]
  Plant response rating, Corn: 85
[1]; [16]
  Corn plant response rating: 90
[2]; 125 g ai/ha
  Foxtail, Giant plant response rating (0 to 100 scale): 100
[2]; [17]
  Foxtail, Giant plant response rating: 100
[3]; [13]
  Barnyardgrass plant response rating: 80
[3]; [14]
  Barnyardgrass plant response rating: 80
[3]; [15]
  Plant response rating, Barnyardgrass: 100
[3]; [16]
  Barnyardgrass plant response rating: 100
[4]; 125 g ai/ha
  Pigweed plant response rating (0 to 100 scale): 100
[4]; [17]
  Pigweed plant response rating: 100
[5]
  Plant response rating, Ducksalad: 100
[6]; 125 g ai/ha
  Velvetleaf plant response rating (0 to 100 scale): 40
[6]; [17]
  Velvetleaf plant response rating: 100
[7]; [19]
  Barnyardgrass plant response rating: 100
[7]; [17]
  Barnyardgrass plant response rating: 100
[8]
  Plant response rating, Sedge, Umbrella: 85
[9]; [13]
  Galium plant response rating: 85
[9]; [14]
  Galium plant response rating: 100
[9]; [15]
  Plant response rating, Galium: 100
[9]; [16]
  Galium plant response rating: 100
[10]; [13]
  Morningglory plant response rating: 95
[10]; [14]
  Morningglory plant response rating: 100
[10]; [15]
  Plant response rating, Morningglory: 100
[10]; [16]
  Morningglory plant response rating: 100
[11]; [18]
  Wheat plant response rating: 80
[11]; [20]
  Wheat plant response rating: 40
[12]; 125 g ai/ha
  Corn plant response rating (0 to 100 scale): 50
[12]; [17]
  Corn plant response rating: 80

## CCOc1cc(C(=O)NCC(F)(F)F)nn1Cc1cc(C(F)(F)F)nn1C [Compound 140]
[1]; [21]
  Plant response rating, Corn: 0
[1]; [22]
  Plant response rating, Corn: 0
[1]; [23]
  Plant response rating, Corn: 0
[1]; [13]
  Corn plant response rating: 10
[2]; [19]
  Foxtail, Giant plant response rating: 100
[2]; [17]
  Foxtail, Giant plant response rating: 100
[3]; [21]
  Plant response rating, Barnyardgrass: 0
[3]; [22]
  Plant response rating, Barnyardgrass: 5
[3]; [23]
  Plant response rating, Barnyardgrass: 30
[3]; preemergence, 31 g ai/ha, scale 0 to 100 (0 no effect, 100 complete control), 13 to 15 days
  Barnyardgrass plant response rating: 80
[4]; [19]
  Pigweed plant response rating: 100
[4]; [17]
  Pigweed plant response rating: 100
[5]
  Plant response rating, Ducksalad: 95
[6]; [19]
  Velvetleaf plant response rating: 60
[6]; [17]
  Velvetleaf plant response rating: 100
[7]; [19]
  Barnyardgrass plant response rating: 90
[7]; [17]
  Barnyardgrass plant response rating: 100
[8]
  Plant response rating, Sedge, Umbrella: 95
[9]; [21]
  Plant response rating, Galium: 50
[9]; [22]
  Plant response rating, Galium: 60
[9]; [23]
  Plant response rating, Galium: 98
[9]; [13]
  Galium plant response rating: 100
[10]; [21]
  Plant response rating, Morningglory: 5
[10]; [22]
  Plant response rating, Morningglory: 5
[10]; [23]
  Plant response rating, Morningglory: 95
[10]; [13]
  Morningglory plant response rating: 90
[11]; [18]
  Wheat plant response rating: 70
[11]; [20]
  Wheat plant response rating: 40
[12]; [19]
  Corn plant response rating: 10
[12]; [17]
  Corn plant response rating: 80

## CCNC(=O)c1cc(CCF)n(Cc2ccnc(C(F)(F)F)c2)n1 [Compound 178]
[1]; [23]
  Plant response rating, Corn: 5
[1]; [13]
  Corn plant response rating: 5
[1]; [14]
  Corn plant response rating: 5
[1]; [15]
  Plant response rating, Corn: 25
[2]; 125 g ai/ha
  Foxtail, Giant plant response rating (0 to 100 scale): 90
[2]; [17]
  Foxtail, Giant plant response rating: 100
[3]; [23]
  Plant response rating, Barnyardgrass: 0
[3]; [13]
  Barnyardgrass plant response rating: 10
[3]; [14]
  Barnyardgrass plant response rating: 60
[3]; [15]
  Plant response rating, Barnyardgrass: 100
[4]; 125 g ai/ha
  Pigweed plant response rating (0 to 100 scale): 100
[4]; [17]
  Pigweed plant response rating: 100
[5]
  Plant response rating, Ducksalad: 95
[6]; 125 g ai/ha
  Velvetleaf plant response rating (0 to 100 scale): 30
[6]; [17]
  Velvetleaf plant response rating: 90
[7]; 125 g ai/ha
  Barnyardgrass plant response rating (0 to 100 scale, 0 is no effect, 100 is complete control): 80
[7]; [17]
  Barnyardgrass plant response rating: 100
[8]
  Plant response rating, Sedge, Umbrella: 85
[9]; [23]
  Plant response rating, Galium: 70
[9]; [13]
  Galium plant response rating: 90
[9]; [14]
  Galium plant response rating: 90
[9]; [15]
  Plant response rating, Galium: 95
[10]; [23]
  Plant response rating, Morningglory: 15
[10]; [13]
  Morningglory plant response rating: 35
[10]; [14]
  Morningglory plant response rating: 95
[10]; [15]
  Plant response rating, Morningglory: 100
[11]; [18]
  Wheat plant response rating: 30
[11]; [20]
  Wheat plant response rating: 0
[12]; 125 g ai/ha
  Corn plant response rating (0 to 100 scale): 0
[12]; [17]
  Corn plant response rating: 50
